Laboratory results published in publication PMC3914206.

Legend:
Format in all cases: binding
Details in all cases: Compound Concentration 10 µM
panel of 442 kinases [1] = molecular target: T1, panel of 442 kinases (Homo sapiens, UniProt Q6XUX3)
T1 construct: purchased KINOMEscan
T1 sequence (Q6XUX3 1-929): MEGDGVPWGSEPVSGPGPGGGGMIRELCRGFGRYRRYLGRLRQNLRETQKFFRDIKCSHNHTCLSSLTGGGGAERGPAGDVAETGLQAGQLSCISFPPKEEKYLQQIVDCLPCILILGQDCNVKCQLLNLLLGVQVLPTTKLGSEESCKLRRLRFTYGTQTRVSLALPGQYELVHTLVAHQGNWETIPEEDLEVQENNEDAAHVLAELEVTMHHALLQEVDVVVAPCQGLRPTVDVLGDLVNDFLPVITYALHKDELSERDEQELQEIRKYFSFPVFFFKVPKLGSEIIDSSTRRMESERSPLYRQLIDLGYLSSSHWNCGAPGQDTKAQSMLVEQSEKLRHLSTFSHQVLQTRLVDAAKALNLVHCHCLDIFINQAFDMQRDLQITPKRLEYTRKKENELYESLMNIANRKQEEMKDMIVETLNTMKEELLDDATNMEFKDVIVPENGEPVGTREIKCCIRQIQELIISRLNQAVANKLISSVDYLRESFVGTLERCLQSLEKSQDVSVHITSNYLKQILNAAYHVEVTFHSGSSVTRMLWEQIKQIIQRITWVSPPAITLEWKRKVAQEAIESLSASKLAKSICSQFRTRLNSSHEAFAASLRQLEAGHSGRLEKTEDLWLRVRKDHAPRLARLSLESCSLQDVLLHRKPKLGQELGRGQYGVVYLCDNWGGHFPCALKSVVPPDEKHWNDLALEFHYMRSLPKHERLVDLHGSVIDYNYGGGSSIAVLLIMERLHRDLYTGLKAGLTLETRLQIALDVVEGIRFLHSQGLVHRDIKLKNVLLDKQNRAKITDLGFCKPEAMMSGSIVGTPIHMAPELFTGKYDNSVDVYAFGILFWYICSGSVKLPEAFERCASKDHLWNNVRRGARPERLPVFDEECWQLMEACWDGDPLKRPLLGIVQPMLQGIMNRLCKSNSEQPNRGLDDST
Description: (§1) We assessed the selectivity of members of this scaffold using the KINOMEscan methodology across a near comprehensive panel of 442 kinases [[18,27]].

panel of 442 kinases [2] = molecular target: T2, panel of 442 kinases (Homo sapiens, UniProt P00533, G719C)
T2 construct: purchased KINOMEscan
Description: as §1

panel of 442 kinases [3] = molecular target: T3, panel of 442 kinases (Homo sapiens, UniProt P16234)
T3 construct: purchased KINOMEscan
Description: as §1

T2 sequence (P00533 25-1210 G719C): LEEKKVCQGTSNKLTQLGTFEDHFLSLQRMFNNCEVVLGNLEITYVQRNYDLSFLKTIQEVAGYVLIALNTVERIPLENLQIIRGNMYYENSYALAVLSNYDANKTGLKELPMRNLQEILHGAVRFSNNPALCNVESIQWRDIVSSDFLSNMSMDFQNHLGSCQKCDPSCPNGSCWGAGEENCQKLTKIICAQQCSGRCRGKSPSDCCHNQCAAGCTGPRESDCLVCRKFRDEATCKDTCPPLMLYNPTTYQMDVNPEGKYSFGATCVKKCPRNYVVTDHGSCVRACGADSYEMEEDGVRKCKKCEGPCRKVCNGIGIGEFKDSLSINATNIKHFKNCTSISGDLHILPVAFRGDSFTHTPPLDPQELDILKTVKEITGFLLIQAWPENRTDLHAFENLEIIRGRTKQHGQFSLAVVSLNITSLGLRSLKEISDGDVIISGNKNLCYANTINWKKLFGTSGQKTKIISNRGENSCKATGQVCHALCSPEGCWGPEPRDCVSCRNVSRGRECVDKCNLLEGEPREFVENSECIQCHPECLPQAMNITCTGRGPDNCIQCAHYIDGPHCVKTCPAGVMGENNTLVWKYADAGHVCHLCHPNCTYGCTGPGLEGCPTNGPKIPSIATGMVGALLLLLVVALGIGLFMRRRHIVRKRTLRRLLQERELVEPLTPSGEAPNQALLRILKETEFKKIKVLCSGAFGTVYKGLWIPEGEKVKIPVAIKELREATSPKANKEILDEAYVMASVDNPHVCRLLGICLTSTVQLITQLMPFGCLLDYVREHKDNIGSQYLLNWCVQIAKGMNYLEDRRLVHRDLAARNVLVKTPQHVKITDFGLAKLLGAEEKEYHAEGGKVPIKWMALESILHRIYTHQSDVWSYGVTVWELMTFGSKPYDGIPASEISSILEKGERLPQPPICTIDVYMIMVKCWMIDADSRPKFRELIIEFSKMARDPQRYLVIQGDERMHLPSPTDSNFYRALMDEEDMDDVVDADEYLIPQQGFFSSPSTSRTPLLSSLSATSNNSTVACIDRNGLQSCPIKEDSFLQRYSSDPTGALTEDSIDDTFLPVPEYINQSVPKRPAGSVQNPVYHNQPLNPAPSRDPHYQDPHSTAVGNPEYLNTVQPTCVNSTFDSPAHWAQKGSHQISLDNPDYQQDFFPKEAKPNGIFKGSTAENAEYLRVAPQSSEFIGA
T3 sequence (P16234 24-1089): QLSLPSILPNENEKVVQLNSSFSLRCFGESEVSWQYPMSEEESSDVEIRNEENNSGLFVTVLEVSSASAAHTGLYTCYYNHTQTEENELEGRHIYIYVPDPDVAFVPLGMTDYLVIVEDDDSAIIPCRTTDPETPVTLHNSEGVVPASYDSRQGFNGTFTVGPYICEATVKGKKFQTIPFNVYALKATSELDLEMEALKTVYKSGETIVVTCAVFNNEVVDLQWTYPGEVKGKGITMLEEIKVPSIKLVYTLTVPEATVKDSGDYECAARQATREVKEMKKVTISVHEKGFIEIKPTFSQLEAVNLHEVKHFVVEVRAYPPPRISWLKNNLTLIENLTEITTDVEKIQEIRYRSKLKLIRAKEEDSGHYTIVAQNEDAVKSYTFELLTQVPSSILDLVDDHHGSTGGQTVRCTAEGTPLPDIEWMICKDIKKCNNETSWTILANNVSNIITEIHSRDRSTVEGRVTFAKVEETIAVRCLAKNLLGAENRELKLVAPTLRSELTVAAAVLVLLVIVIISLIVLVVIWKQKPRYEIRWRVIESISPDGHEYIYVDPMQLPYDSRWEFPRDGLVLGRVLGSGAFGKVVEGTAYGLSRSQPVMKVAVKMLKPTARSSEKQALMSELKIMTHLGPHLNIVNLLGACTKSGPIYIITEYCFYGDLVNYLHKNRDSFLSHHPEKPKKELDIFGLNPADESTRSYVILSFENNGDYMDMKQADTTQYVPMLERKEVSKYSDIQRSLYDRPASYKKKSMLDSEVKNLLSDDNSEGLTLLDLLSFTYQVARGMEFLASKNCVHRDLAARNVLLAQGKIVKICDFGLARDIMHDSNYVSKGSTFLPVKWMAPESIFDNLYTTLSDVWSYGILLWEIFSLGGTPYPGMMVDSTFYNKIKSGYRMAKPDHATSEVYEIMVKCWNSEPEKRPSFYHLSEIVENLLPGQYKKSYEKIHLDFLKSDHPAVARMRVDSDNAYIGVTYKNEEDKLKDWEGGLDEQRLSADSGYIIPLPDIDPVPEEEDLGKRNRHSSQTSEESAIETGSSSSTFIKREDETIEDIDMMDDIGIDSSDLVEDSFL

| Structure (SMILES) | KINOMEscan: RIPK5 (panel of 442 kinases [1]) | KINOMEscan: EGFR(G719C) (panel of 442 kinases [2]) | KINOMEscan: PDGFRA (panel of 442 kinases [3]) |
| --- | --- | --- | --- |
| COc1cc(C(=O)N2CCC(N3CCN(C)CC3)CC2)ccc1Nc1ncc2c(n1)N(C)c1ccccc1C(=O)N2C [15 (LRRK2-IN-1)] | 16 | 100 | 100 |
| COc1cc(C(=O)N2CCC(N3CCN(C)CC3)CC2)ccc1Nc1ncc2c(n1)N1CCc3cccc(c31)C(=O)N2C [Compound 24] | 24 | 66 |  |
| COc1cc(C(=O)N2CCC(N3CCN(C)CC3)CC2)ccc1Nc1ncc2c(n1)N(C1CCCC1)c1ccccc1C(=O)N2C [Compound 25, 11-cyclopentyl-2-((2-methoxy-4-(4-(4-methylpiperazin-1-yl)piperidine-1-carbonyl)phenyl)amino)-5-methyl-5H-benzo[e]pyrimido[5,4-b][1,4]diazepin-6(11H)-one] | 4.9 | 71 | 100 |
| CCOc1cc(C(=O)N2CCC(N3CCN(C)CC3)CC2)ccc1Nc1ncc2c(n1)N(C1CCCC1)c1ccccc1C(=O)N2C [Compound 26] | 16 | 100 | 100 |
